In article PMC3702004, “Comparison of Intake and Systemic Relative Effect Potencies of Dioxin-like Compounds in Female Mice after a Single Oral Dose” (Environmental Health Perspectives, 2013):

What was measured:
[1] = Body and organ weight, hepatic lipid content; format: in vivo, female C57BL/6 mice; conditions: day 3; for % lipid / g liver: pooled liver samples
Protocol: (§1) Animals. Eight-week-old female C57BL/6 mice (Harlan laboratories, Venray, the Netherlands) were randomly assigned to treatment groups (six animals per group) and allowed to acclimate for 1.5 weeks. The animals were housed in groups in standard cages and conditions (23 ± 2°C, 50–60% relative humidity, 12-hr dark/light cycle) with free access to food and water. Mice received a single dose of test compound by oral gavage at a dosing volume of 10 mL/kg body weight (BW). Mice treated with corn oil vehicle (10 mL/kg BW) served as controls. For each congener, five different doses were administered, ranging from 0.5–100 μg/kg BW (TCDD) to 5,000–500,000 µg/kg BW (PCB-153). Detailed information on doses is provided in Supplemental Material, Table S1 (http://dx.doi.org/10.1289/ehp.1206336). On day 3 after dosing, animals were euthanized by CO2/O2 asphyxiation, and blood was immediately collected from the abdominal aorta. The liver, thymus, spleen, and adipose tissue were removed, weighed (liver, thymus, and spleen), snap frozen, and stored at –80°C. All animal treatments were performed with permission of the Animal Ethical Committee (DEC Utrecht) and performed according to the [Law on Animal Experiments (1977)]. Animals were treated humanely and with regard for alleviation of suffering.
(§2) Compound analysis. Adipose and liver tissues samples were homogenized in Na2SO4, followed by extraction and clean-up in one step, and then eluted with 200 mL 1:1 hexane:dichloromethane on an open column packed with 40% wt/wt H2SO4-impregnated silica and KOH-silica. Blood plasma samples were extracted on an open column using Chem-Elut (Agilent Technologies, Santa Clara, CA, USA) and then NaCl eluted with 75 mL 3:2 hexane:2-propanol. Clean-up was performed using a miniaturized silica column (as described above), and samples were eluted using 30 mL hexane. Because the samples typically contained high levels of the analytes, only a small fraction was evaporated and analyzed. Prior to evaporation, we spiked a fraction of the samples with ^13C-labeled standards. We checked potential loss of analytes during extraction and clean-up by reextracting the samples using the identical protocol used for the samples. […] Tetradecane was added prior to evaporation. Sample analysis followed the U.S. Environmental Protection Agency Method 1613 ([U.S. Environmental Protection Agency 1994]) using single ion monitoring mode on an Agilent 6809N gas chromatograph (Agilent Technologies) coupled with a Micromass Ultima Autospec Ultra high-resolution mass spectrometer (HRMS; Waters Corp., Milford, MA, USA). Compounds were separated on a 60 m × 0.25 mm DB5-MS column ([…]; J&W Scientific, Folsom, CA, USA). The HRMS was operated with electron impact ionization with electron energy of 35 eV and an ion source temperature of 250°C. To reduce the number of analyses, samples were pooled before clean-up. […] This method was used because full congener–specific separation could be achieved on the high-resolution GC–HRMS. For lipid determination, samples were evaporated to dryness after the extraction step, and the amount of lipids was determined gravimetrically. Concentrations were calculated based on lipid weight and wet weight. The analysis of samples for the PCB-118 5,000 μg/kg BW dose failed during the procedure; thus analysis for this group could not be completed.
Statistical analysis. Statistical significant differences of the means and variances were determined using one-way analysis of variance (ANOVA) followed by Tukey-Kramer multiple comparisons. Differences were considered statistically significant at p < 0.05. Statistical calculations were performed using GraphPad 6.01 (GraphPad Software Inc.).

[2] = Compound analysis: liver, adipose and plasma concentrations 3 days after a single oral dose; format: in vivo, female C57BL/6 mice; conditions: for liver:adipose ratio (hepatic sequestration criterion 0.3): Table 1 doses; for Liver:adipose ratio: based on ng/g tissue, day 3
Protocol: as §1, §2
Plasma and PBL isolation. Blood from two mice was pooled (total volume of approximately 1.4 mL); plasma and PBLs were then isolated using Ficoll Paque gradient (GE Healthcare Europe, Diegem, Belgium). Plasma samples were stored at –80°C until compound analysis. Isolated lymphocytes were lysed with RLT buffer (QIAGEN, Venlo, the Netherlands) as described in the QIAGEN RNAeasy kit protocol and stored at –80°C until use.

[3] = toxic equivalency factor relative to TCDD; ref Van den Berg et al. 2006; cited from earlier work
[4] = oral dose 15000 µg/kg bw, 3 days after single oral dose
[5] = oral dose 50000 µg/kg bw, 3 days after single oral dose
[6] = oral dose 150000 µg/kg bw, 3 days after single oral dose
[7] = oral dose 500000 µg/kg bw, 3 days after single oral dose
[8] = oral dose 5000 µg/kg bw, 3 days after single oral dose

Clc1cc2oc3c(Cl)c(Cl)c(Cl)cc3c2cc1Cl [Congener 4-PeCDF, 2,3,4,7,8-pentachlorodibenzofuran]
Body weight ([1]; oral dose 5 µg/kg bw): 19.3 ± 1.2 gram
Liver weight ([1]; oral dose 5 µg/kg bw): 5.37 ± 0.32 % of bw
Spleen weight ([1]; oral dose 5 µg/kg bw): 0.29 ± 0.05 % of bw
Thymus weight ([1]; oral dose 5 µg/kg bw): 0.26 ± 0.07 % of bw
% lipid / g liver ([1]; oral dose 5 µg/kg bw): 3.6%
Body weight ([1]; oral dose 25 µg/kg bw): 19.0 ± 1.1 gram
Liver weight ([1]; oral dose 25 µg/kg bw): 5.32 ± 0.19 % of bw
Spleen weight ([1]; oral dose 25 µg/kg bw): 0.33 ± 0.04 % of bw
Thymus weight ([1]; oral dose 25 µg/kg bw): 0.24 ± 0.04 % of bw
% lipid / g liver ([1]; oral dose 25 µg/kg bw): 4.5%
Body weight ([1]; oral dose 100 µg/kg bw): 19.2 ± 1.0 gram
Liver weight ([1]; oral dose 100 µg/kg bw): 5.94 ± 0.27 % of bw
Spleen weight ([1]; oral dose 100 µg/kg bw): 0.32 ± 0.03 % of bw
Thymus weight ([1]; oral dose 100 µg/kg bw): 0.22 ± 0.04 % of bw
% lipid / g liver ([1]; oral dose 100 µg/kg bw): 4.5%
Body weight ([1]; oral dose 250 µg/kg bw): 19.8 ± 1.0 gram
Liver weight ([1]; oral dose 250 µg/kg bw): 6.05 ± 0.42 % of bw
Spleen weight ([1]; oral dose 250 µg/kg bw): 0.34 ± 0.04 % of bw
Thymus weight ([1]; oral dose 250 µg/kg bw): 0.23 ± 0.03 % of bw
Body weight ([1]; oral dose 1000 µg/kg bw): 20.2 ± 1.1 gram
Liver weight ([1]; oral dose 1000 µg/kg bw): 6.35 ± 0.30 % of bw
Spleen weight ([1]; oral dose 1000 µg/kg bw): 0.32 ± 0.02 % of bw
Thymus weight ([1]; oral dose 1000 µg/kg bw): 0.22 ± 0.04 % of bw
Dose with significant increase in liver weight vs vehicle controls ([1]; single oral dose): ≥ 100 µg/kg BW
Adipose % dose / g tissue ([2]; oral dose 5 µg/kg bw, 3 days after single oral dose): 3.4 % dose / g tissue
Adipose % dose / g tissue ([2]; oral dose 25 µg/kg bw, 3 days after single oral dose): 3.0 % dose / g tissue
Adipose % dose / g tissue ([2]; oral dose 100 µg/kg bw, 3 days after single oral dose): 3.5 % dose / g tissue
WHO-TEF [3]: 0.3

Clc1ccc(-c2cc(Cl)c(Cl)cc2Cl)cc1Cl [PCB-118, 2,3´,4,4´,5-pentachlorobiphenyl]
Body weight ([1]; oral dose 5000 µg/kg bw): 18.3 ± 0.9 gram
Liver weight ([1]; oral dose 5000 µg/kg bw): 5.04 ± 0.22 % of bw
Spleen weight ([1]; oral dose 5000 µg/kg bw): 0.32 ± 0.03 % of bw
Thymus weight ([1]; oral dose 5000 µg/kg bw): 0.27 ± 0.03 % of bw
% lipid / g liver ([1]; oral dose 5000 µg/kg bw): 2.7%
Body weight ([1]; oral dose 15000 µg/kg bw): 18.3 ± 0.8 gram
Liver weight ([1]; oral dose 15000 µg/kg bw): 5.06 ± 0.22 % of bw
Spleen weight ([1]; oral dose 15000 µg/kg bw): 0.33 ± 0.05 % of bw
Thymus weight ([1]; oral dose 15000 µg/kg bw): 0.23 ± 0.04 % of bw
% lipid / g liver ([1]; oral dose 15000 µg/kg bw): 3.3%
Body weight ([1]; oral dose 50000 µg/kg bw): 18.0 ± 1.8 gram
Liver weight ([1]; oral dose 50000 µg/kg bw): 4.87 ± 0.41 % of bw
Spleen weight ([1]; oral dose 50000 µg/kg bw): 0.30 ± 0.03 % of bw
Thymus weight ([1]; oral dose 50000 µg/kg bw): 0.20 ± 0.05 % of bw
% lipid / g liver ([1]; oral dose 50000 µg/kg bw): 3.5%
Body weight ([1]; oral dose 150000 µg/kg bw): 19.2 ± 0.8 gram
Liver weight ([1]; oral dose 150000 µg/kg bw): 6.14 ± 0.45 % of bw
Spleen weight ([1]; oral dose 150000 µg/kg bw): 0.34 ± 0.04 % of bw
Thymus weight ([1]; oral dose 150000 µg/kg bw): 0.21 ± 0.05 % of bw
% lipid / g liver ([1]; oral dose 150000 µg/kg bw): 4.6%
Body weight ([1]; oral dose 500000 µg/kg bw): 19.1 ± 1.0 gram
Liver weight ([1]; oral dose 500000 µg/kg bw): 7.23 ± 0.29 % of bw
Spleen weight ([1]; oral dose 500000 µg/kg bw): 0.31 ± 0.03 % of bw
Thymus weight ([1]; oral dose 500000 µg/kg bw): 0.23 ± 0.04 % of bw
Dose with significant increase in liver weight vs vehicle controls ([1]; single oral dose): ≥ 150,000 µg/kg BW
liver:adipose ratio (hepatic sequestration criterion 0.3) ([2]; 3 days after single oral dose): < 0.3
Liver:adipose ratio ([2]; dose 15,000 μg/kg BW): 0.08±0.01
Liver:adipose ratio ([2]; dose 50,000 μg/kg BW): 0.07±0.02
Adipose % dose / g tissue [2, 4]: 32 % dose / g tissue
Liver % dose / g tissue [2, 4]: 2.6 % dose / g tissue
Plasma % dose / g tissue [2, 4]: 0.054 % dose / g tissue
Adipose % dose / g tissue [2, 5]: 33 % dose / g tissue
Liver % dose / g tissue [2, 5]: 2.2 % dose / g tissue
Plasma % dose / g tissue [2, 5]: 0.067 % dose / g tissue
Liver % dose / g tissue [2, 6]: 2.2 % dose / g tissue
Plasma % dose / g tissue [2, 6]: 0.062 % dose / g tissue
Plasma % dose / g tissue [2, 7]: 0.05 % dose / g tissue
WHO-TEF [3]: 0.00003

Clc1cc(Cl)c(-c2cc(Cl)c(Cl)cc2Cl)cc1Cl [PCB-153, 2,2´,4,4´,5,5´-hexachlorobiphenyl]
Body weight ([1]; oral dose 5000 µg/kg bw): 18.8 ± 1.1 gram
Liver weight ([1]; oral dose 5000 µg/kg bw): 4.71 ± 0.34 % of bw
Spleen weight ([1]; oral dose 5000 µg/kg bw): 0.30 ± 0.04 % of bw
Thymus weight ([1]; oral dose 5000 µg/kg bw): 0.25 ± 0.05 % of bw
% lipid / g liver ([1]; oral dose 5000 µg/kg bw): 3.3%
Body weight ([1]; oral dose 15000 µg/kg bw): 19.1 ± 0.5 gram
Liver weight ([1]; oral dose 15000 µg/kg bw): 4.96 ± 0.10 % of bw
Spleen weight ([1]; oral dose 15000 µg/kg bw): 0.36 ± 0.04 % of bw
Thymus weight ([1]; oral dose 15000 µg/kg bw): 0.26 ± 0.04 % of bw
% lipid / g liver ([1]; oral dose 15000 µg/kg bw): 3.9%
Body weight ([1]; oral dose 50000 µg/kg bw): 19.6 ± 0.8 gram
Liver weight ([1]; oral dose 50000 µg/kg bw): 5.15 ± 0.38 % of bw
Spleen weight ([1]; oral dose 50000 µg/kg bw): 0.33 ± 0.04 % of bw
Thymus weight ([1]; oral dose 50000 µg/kg bw): 0.29 ± 0.03 % of bw
% lipid / g liver ([1]; oral dose 50000 µg/kg bw): 3.4%
Body weight ([1]; oral dose 150000 µg/kg bw): 19.9 ± 1.1 gram
Liver weight ([1]; oral dose 150000 µg/kg bw): 5.47 ± 0.37 % of bw
Spleen weight ([1]; oral dose 150000 µg/kg bw): 0.34 ± 0.05 % of bw
Thymus weight ([1]; oral dose 150000 µg/kg bw): 0.25 ± 0.04 % of bw
Body weight ([1]; oral dose 500000 µg/kg bw): 18.8 ± 0.7 gram
Liver weight ([1]; oral dose 500000 µg/kg bw): 5.80 ± 0.30 % of bw
Spleen weight ([1]; oral dose 500000 µg/kg bw): 0.33 ± 0.05 % of bw
Thymus weight ([1]; oral dose 500000 µg/kg bw): 0.24 ± 0.04 % of bw
Dose with significant increase in liver weight vs vehicle controls ([1]; single oral dose): ≥ 500,000 µg/kg BW
Dose with statistically significant decrease in relative thymus weight vs vehicle controls ([1]; single oral dose): 500,000 μg/kg BW
liver:adipose ratio (hepatic sequestration criterion 0.3) ([2]; 3 days after single oral dose): < 0.3
Liver:adipose ratio ([2]; dose 5,000 μg/kg BW): 0.08±0.02
Liver:adipose ratio ([2]; dose 15,000 μg/kg BW): 0.11±0.02
Liver:adipose ratio ([2]; dose 50,000 μg/kg BW): 0.08±0.03
tissue uptake ([2]; female, C57BL/6, mouse, in vivo, oral dose 5000 µg/kg bw, 3 days after single oral dose): 0.075 %ID/g
Adipose % dose / g tissue [2, 8]: 23 % dose / g tissue
Liver % dose / g tissue [2, 8]: 1.8 % dose / g tissue
Adipose % dose / g tissue [2, 4]: 25 % dose / g tissue
Liver % dose / g tissue [2, 4]: 2.5 % dose / g tissue
Plasma % dose / g tissue [2, 4]: 0.052 % dose / g tissue
Adipose % dose / g tissue [2, 5]: 25 % dose / g tissue
Liver % dose / g tissue [2, 5]: 2.0 % dose / g tissue
Plasma % dose / g tissue [2, 5]: 0.060 % dose / g tissue
Plasma % dose / g tissue [2, 6]: 0.050 % dose / g tissue
Plasma % dose / g tissue [2, 7]: 0.042 % dose / g tissue
